The subject of test [1] is PC3M reporter cell line stably expressing the PTB-GFP. Kind of test: ATP quantitation assay (ATPLite). Type of test: cell-based, human. Particulars: Homo sapiens, PC-3M, Table 4, PC3M cells, 24 hrs incubation. The protocol: This follow-up assay was conducted to measure the effect of compounds on cell health by measuring ATP levels (ATPLite™). ATPLite™ is an ATP monitoring system based on firefly (Photinus pyralis) luciferase. The level of ATP in a metabolically active cell is a general marker for its viability. ATP levels are often reduced during necrosis or apoptosis. In this assay, the luciferase enzyme catalyzes the conversion of the added substrate D-luciferin to oxyluciferin and light with ATP. Thus, the emitted light is proportional to the ATP concentration. For this assay, the highly metastatic PC3M reporter cell line stably expressing the PTB-GFP was provided by Professor Sui Huang of Northwestern University. The media and cell culture reagents were purchased from Invitrogen (Carlsbad, Calif.), ATPLite™ came from PerkinElmer.
For orientation: In ATP-based viability assays light output follows the ATP content of the culture.

The test system of test [2] is PC3M cell line that stably expresses GFP-PTB to mark PNCs. Kind of test: High content assay for PNC detection (reduction of PNC prevalence). The test is classed as cell-based, human. Particulars: Table 4, PC3M GFP-PTB cells, 16 hrs incubation; for IC50: Homo sapiens, PC-3M. An excerpt:
The quantitative output for this assay is the reduction of PNC prevalence. The PNC can be detected in living cells by the expression of a green fluorescent protein (GFP) tagged to the PNC localized protein, PTB. A PC3M cell line was used that stably expresses GFP-PTB to mark PNCs. This method eliminates the need for immunofluorescent staining.
The IN Cell Analyzer 1000 automated fluorescent imaging system (GE Healthcare, Piscataway, N.J.) was used for automated image acquisition. […] The instrument acquired images of each well in a 1536-well plate with a laser-based autofocus system. To score PNC prevalence in a high-content throughput, the Multi-Target Analysis (MTA) algorithm (GE Healthcare, Investigator v3.5) to identify individual cells and granules (PNCs) within these cells was used. The nucleus was segmented via a region growing method (50 μm^2 minimum area) with light shading and noise removal to allow “touching” nuclei to be separated. Granules in the nucleus (PNCs) were segmented using a multiscale top hat method, which measures granules of 1 to 2 μm in size and used a smart masking method to identify the boundaries of each segmented granule. The algorithm was optimized and validated using positive and negative controls (50 μM camptothecin and DMSO, respectively). In particular, the MTA algorithm allows for the identification of multiple subcellular compartments and organelles (or granules) within those compartments. In this instance, the algorithm's capability to identify objects within the same color channel that only differ in size or fluorescent intensity was utilized. Also, the algorithm allows for building complex hierarchical classification systems, using output measures within the algorithm to filter and define subpopulations. For this particular assay, PNC-positive cells were scored when 1 to 3 PNC granules were detected per nucleus. Cells that contained 0 granules were scored as PNC negative, and cells with >3 granules were assumed to be false positives (very few cells have more than 3 PNCs in one focus plane), and were also scored as PNC negative.

What is called IC50 is the concentration needed to halve the response being measured. A low value points to greater potency. For `COC(Cn1cnc2c(c(-c3ccccc3)c(-c3ccccc3)n2Cc2ccccc2)c1=N)OC`, the IC50 turned out to be 38.3 µM in test [1] and 5.9 µM in test [2].
The like results for `N=c1c2c(-c3ccccc3)c(-c3ccccc3)n(CCc3ccccc3)c2ncn1[C@H]1CC[C@H](O)CC1` [Compound 3] were, in that order, 9.61 µM and 0.047 µM.
As for `N=c1c2c(-c3ccccc3)c(-c3ccccc3)n(Cc3ccccc3)c2ncn1CCO` [Compound 4], the IC50 in test [1] was found to be 76.4 µM; in test [2], 0.118 µM.
For `N=c1c2c(-c3ccccc3)c(-c3ccccc3)n(CCc3ccccc3)c2ncn1CCO` [Compound 5], the IC50 in test [1] is 19.2 µM; in test [2] it was 0.187 µM.
Take `COc1ccc(Cn2c(-c3ccccc3)c(-c3ccccc3)c3c(=N)n(CCO)cnc32)cc1` [Compound 6]: the IC50 in test [1] was 48.2 µM; in test [2], 1.48 µM.
With `N=c1c2c(-c3ccccc3)c(-c3ccccc3)n(Cc3ccco3)c2ncn1CCO` [Compound 7], the IC50 came to 20.4 µM in test [1] and 0.628 µM in test [2].
The like results for `N=c1c2c(-c3ccccc3)c(-c3ccccc3)n(CCc3ccccc3)c2ncn1CCCO` [Compound 9] were, in that order, 19.2 µM and 0.148 µM.
For the molecule `N=c1c2c(-c3ccccc3)c(-c3ccccc3)n(Cc3ccco3)c2ncn1CCCO` [Compound 11], the figures for the IC50 in test [1] and in test [2] were 64.6 µM and 3.97 µM, respectively.
As for `N=c1c2c(-c3ccccc3)c(-c3ccccc3)n(Cc3ccccc3)c2ncn1CCCCO` [Compound 12], the IC50 in test [1] was found to be 24.1 µM. Also, the “PNC IC50(μM)” value in test [2] was “inactive”.
Consider `N=c1c2c(-c3ccccc3)c(-c3ccccc3)n(CCc3ccccc3)c2ncn1CCCCO` [Compound 13], for which the IC50 in test [1] came to 15.2 µM; in test [2], 0.235 µM.
With `COc1ccc(Cn2c(-c3ccccc3)c(-c3ccccc3)c3c(=N)n(CCCCCO)cnc32)cc1` [Compound 14], the IC50 came to 24.1 µM in test [1] and 1.18 µM in test [2].
Take `N=c1c2c(-c3ccccc3)c(-c3ccccc3)n(Cc3ccccc3)c2ncn1CCCCCO` [Compound 15]: the IC50 amounted to 24.1 µM in test [1] and 0.372 µM in test [2].
Regarding `N=c1c2c(-c3ccccc3)c(-c3ccccc3)n(CCc3ccccc3)c2ncn1CCCCCO` [Compound 16], the IC50 came to 38.3 µM in test [1] and 0.59 µM in test [2].
For `COc1ccc(Cn2c(-c3ccccc3)c(-c3ccccc3)c3c(=N)n(CCCCO)cnc32)cc1` [Compound 17] the same measures were 30.4 µM and 1.18 µM.
In the case of `N=c1c2c(-c3ccccc3)c(-c3ccccc3)n(Cc3ccccc3)c2ncn1CCN` [Compound 18], half-maximal inhibition in test [1] (IC50) was put at 76.4 µM. Also, the “PNC IC50(μM)” value in test [2] was “inactive”.
Consider `CN(C)CCn1cnc2c(c(-c3ccccc3)c(-c3ccccc3)n2Cc2ccccc2)c1=N` [Compound 19], for which the IC50 was determined as 24.1 µM in test [1] and 0.935 µM in test [2].
As for `CN(C)CCn1cnc2c(c(-c3ccccc3)c(-c3ccccc3)n2CCc2ccccc2)c1=N` [Compound 20], the IC50 in test [1] stood at 96.1 µM; in test [2], 0.469 µM.
Turning to `CN(C)CCCn1cnc2c(c(-c3ccccc3)c(-c3ccccc3)n2Cc2ccccc2)c1=N` [Compound 21], the figures for the IC50 in test [1] and in test [2] were 24.1 µM and 7.43 µM, respectively.
For `CN(C)CCCn1cnc2c(c(-c3ccccc3)c(-c3ccccc3)n2CCc2ccccc2)c1=N` [Compound 22] the same measures were 24.1 µM and 7.43 µM.
As for `N=c1c2c(-c3ccccc3)c(-c3ccccc3)n(Cc3ccccc3)c2ncn1C1CCN(Cc2ccccc2)CC1` [Compound 23], the IC50 was determined as 121 µM in test [1] and 4.69 µM in test [2].
Turning to `N=c1c2c(-c3ccccc3)c(-c3ccccc3)n(CCc3ccccc3)c2ncn1C1CCN(Cc2ccccc2)CC1` [Compound 24], the IC50 in test [1] was determined as 24.1 µM; in test [2], 1.87 µM.
`COCCn1cnc2c(c(-c3ccccc3)c(-c3ccccc3)n2Cc2ccccc2)c1=N` [Compound 25]: the half-maximal inhibitory concentration (IC50) in test [1] was 60.7 µM; in test [2] it was 1.87 µM.
For `COCCn1cnc2c(c(-c3ccccc3)c(-c3ccccc3)n2CCc2ccccc2)c1=N` [Compound 26], the IC50 in test [1] was found to be 60.7 µM; in test [2] it was 3.72 µM.
For the molecule `COCCn1cnc2c(c(-c3ccccc3)c(-c3ccccc3)n2Cc2ccc(OC)cc2)c1=N` [Compound 27], the results for the IC50 in test [1] and in test [2] were 24.1 µM and 1.18 µM, respectively.
On to `COC(Cn1cnc2c(c(-c3ccccc3)c(-c3ccccc3)n2CCc2ccccc2)c1=N)OC` [Compound 29], for which the IC50 turned out to be 27.1 µM in test [1] and 23.5 µM in test [2].
For `COc1ccc(Cn2c(-c3ccccc3)c(-c3ccccc3)c3c(=N)n(CC(OC)OC)cnc32)cc1` [Compound 30] the same measures were 24.1 µM and 5.9 µM.
In the case of `CCOC(CCCn1cnc2c(c(-c3ccccc3)c(-c3ccccc3)n2Cc2ccccc2)c1=N)OCC` [Compound 31], the IC50 is 24.1 µM in test [1] and 2.96 µM in test [2].
For `CCOC(CCCn1cnc2c(c(-c3ccccc3)c(-c3ccccc3)n2CCc2ccccc2)c1=N)OCC` [Compound 32] the same measures were 24.1 µM and 18.7 µM.
With `CCOC(CCCn1cnc2c(c(-c3ccccc3)c(-c3ccccc3)n2Cc2ccc(OC)cc2)c1=N)OCC` [Compound 33], the IC50 worked out at 48.2 µM in test [1] and 2.96 µM in test [2].
`CCCCn1cnc2c(c(-c3ccccc3)c(-c3ccccc3)n2Cc2ccco2)c1=N` [Compound 34]: the IC50 was 20.4 µM in test [1] and 1.25 µM in test [2].
With `CC(C)CCn1cnc2c(c(-c3ccccc3)c(-c3ccccc3)n2Cc2ccco2)c1=N` [Compound 35], in test [1], half-maximal inhibition (IC50) was put at 19.9 µM. In addition, the “PNC IC50(μM)” value in test [2] was “Inactive”.
As for `N=c1c2c(-c3ccccc3)c(-c3ccccc3)n(Cc3ccccc3)c2ncn1CCCn1ccnc1` [Compound 36], the IC50 in test [1] amounted to 25.7 µM; in test [2], 1.99 µM.
As to `N=c1c2c(-c3ccccc3)c(-c3ccccc3)n(Cc3ccccc3)c2ncn1CC1CCCO1` (stereo not drawn) [Compound 38], the IC50 came to 96.1 µM in test [1] and 0.935 µM in test [2].
Turning to `N=c1c2c(-c3ccccc3)c(-c3ccccc3)n(CCc3ccccc3)c2ncn1CC1CCCO1` (stereo not drawn) [Compound 39], the figures for the IC50 in test [1] and in test [2] were 48.2 µM and 4.69 µM, respectively.
In the case of `COc1ccc(Cn2c(-c3ccccc3)c(-c3ccccc3)c3c(=N)n(CC4CCCO4)cnc32)cc1` (stereo not drawn) [Compound 40], the IC50 in test [1] worked out at 38.3 µM; in test [2], 5.9 µM.
In the case of `N=c1c2c(-c3ccccc3)c(-c3ccccc3)n(Cc3ccco3)c2ncn1Cc1ccco1` [Compound 43], the figures for the IC50 in test [1] and in test [2] were 20.4 µM and 9.96 µM, respectively.
For `N=c1c2c(-c3ccccc3)c(-c3ccccc3)n(Cc3ccccc3)c2ncn1Cc1ccccc1` [Compound 44] the same measures were 19.9 µM and 15.8 µM.
The like results for `N=c1c2c(-c3ccccc3)c(-c3ccccc3)n(Cc3ccccc3)c2ncn1Cc1ccc2c(c1)OCO2` [Compound 45] were, in that order, 24.1 µM and 9.35 µM.
Turning to `COc1ccc(CCn2cnc3c(c(-c4ccccc4)c(-c4ccccc4)n3Cc3ccccc3)c2=N)cc1OC` [Compound 46], the figures for the IC50 in test [1] and in test [2] were 24.1 µM and 14.8 µM, respectively.
`N=c1c2c(-c3ccccc3)c(-c3ccccc3)n(CCc3ccccc3)c2ncn1[C@H](CO)Cc1ccccc1` [Compound 48]: the IC50 was 30.4 µM in test [1] and 4.69 µM in test [2].
For `N=c1c2c(-c3ccccc3)c(-c3ccccc3)n(Cc3ccco3)c2ncn1CCN1CCOCC1` [Compound 50], the half-inhibitory concentration (IC50) in test [1] is 32.4 µM. Besides, the “PNC IC50(μM)” value in test [2] was “inactive”.
Turning to `COC(=O)c1cccc(Cn2cnc3c(c(-c4ccccc4)c(-c4ccccc4)n3CCc3ccccc3)c2=N)c1` [Compound 53], the IC50 in test [1] is 24.1 µM; in test [2], 29.6 µM.
`CO[C@H]1CC[C@H](n2cnc3c(c(-c4ccccc4)c(-c4ccccc4)n3Cc3ccccc3)c2=N)CC1` [Compound 56]: the IC50 in test [1] is 19.2 µM; in test [2] it was 0.009 µM.
In the case of `N=c1c2c(-c3ccccc3)c(-c3ccccc3)n(Cc3ccc(S(N)(=O)=O)cc3)c2ncn1C1CCOCC1` [Compound 57], the IC50 is 96.1 µM in test [1] and 0.059 µM in test [2].
Turning to `COc1ccc(Cn2c(-c3ccccc3)c(-c3ccccc3)c3c(=N)n([C@H]4CC[C@H](O)CC4)cnc32)cc1` [Compound 58], the values for the IC50 in test [1] and in test [2] were 24.1 µM and 0.118 µM, respectively.

Source of the values: patent publication US10301314B2, “Compounds and methods for the prevention and treatment of tumor metastasis and tumorigenesis” (The United States of America, as represented by the …, priority 2011, dated 2019).
